The CheMixHub drug solubility set

Assay: xn = mol fraction of the nth substance listed, in the solute-free solvent

CCC(C(C)O)n1ncn(-c2ccc(N3CCN(c4ccc(OCC5COC(Cn6cncn6)(c6ccc(F)cc6F)C5)cc4)CC3)cc2)c1=O (configuration not stated) + CCOC(C)=O + CC(C)O
solubility (g/100 g solution)
Settings	273.15 K	278.15 K	283.15 K	288.15 K	293.15 K	298.15 K	303.15 K	308.15 K	313.15 K
x2 = 0.07045	0.00869	0.0113	0.015	0.0192	0.0237	0.0294	0.0352	0.0423	0.0504
x2 = 0.1457	0.0114	0.0145	0.0186	0.023	0.0283	0.0344	0.0415	0.049	0.058
x2 = 0.2262	0.0148	0.0192	0.0245	0.0306	0.0374	0.0445	0.0524	0.0621	0.0721
x2 = 0.3126	0.0191	0.0242	0.0305	0.0373	0.0452	0.0542	0.0641	0.0753	0.0897
x2 = 0.4055	0.0249	0.0308	0.039	0.0482	0.0589	0.071	0.0837	0.0987	0.119
x2 = 0.5057	0.0321	0.0401	0.0493	0.0608	0.0728	0.0857	0.103	0.121	0.145
x2 = 0.6141	0.0354	0.0469	0.0581	0.0726	0.0862	0.101	0.118	0.14	0.164
x2 = 0.7318	0.0383	0.0499	0.0636	0.0793	0.0965	0.115	0.135	0.16	0.186
x2 = 0.8599	0.0405	0.0522	0.066	0.0819	0.101	0.12	0.142	0.166	0.193

COC(=O)C1=C(C)NC(C)=C(C(=O)OCC(C)C)C1c1ccccc1[N+](=O)[O-] (configuration not stated) + CCOC(C)=O + CC(C)O
solubility (g/100 g solution)
Settings	278.15 K	283.15 K	288.15 K	293.15 K	298.15 K	303.15 K	308.15 K	313.15 K	318.15 K
x2 = 0.07045	3.52	4.21	5.01	5.86	6.83	7.91	9.07	10.5	11.9
x2 = 0.1457	4.03	4.67	5.54	6.46	7.55	8.74	9.96	11.4	12.9
x2 = 0.2262	4.4	5.19	6.09	7.07	8.21	9.47	10.8	12.3	13.9
x2 = 0.3126	4.88	5.76	6.68	7.75	8.91	10.2	11.5	13	14.7
x2 = 0.4055	5.37	6.28	7.26	8.31	9.53	10.8	12.3	13.8	15.4
x2 = 0.5057	5.77	6.69	7.7	8.82	10.1	11.4	12.9	14.5	16.1
x2 = 0.6141	6.12	7.09	8.13	9.25	10.6	12	13.5	15.1	16.8
x2 = 0.7318	6.4	7.37	8.53	9.72	11	12.5	14.1	15.7	17.5
x2 = 0.8599	6.59	7.63	8.83	10	11.4	12.8	14.3	16	17.8

CCC(C(C)O)n1ncn(-c2ccc(N3CCN(c4ccc(OCC5COC(Cn6cncn6)(c6ccc(F)cc6F)C5)cc4)CC3)cc2)c1=O (configuration not stated) + CCOC(C)=O + CCO
solubility (g/100 g solution)
Settings	273.15 K	278.15 K	283.15 K	288.15 K	293.15 K	298.15 K	303.15 K	308.15 K	313.15 K
x2 = 0.05491	0.0447	0.057	0.0728	0.0894	0.109	0.13	0.151	0.174	0.201
x2 = 0.1156	0.0657	0.084	0.104	0.125	0.148	0.173	0.2	0.229	0.264
x2 = 0.1831	0.106	0.131	0.158	0.188	0.217	0.251	0.289	0.33	0.38
x2 = 0.2585	0.144	0.174	0.207	0.243	0.28	0.323	0.37	0.422	0.484
x2 = 0.3434	0.162	0.191	0.227	0.265	0.308	0.358	0.417	0.486	0.561
x2 = 0.4396	0.142	0.171	0.202	0.237	0.27	0.311	0.359	0.412	0.48
x2 = 0.5496	0.112	0.137	0.163	0.192	0.221	0.253	0.285	0.321	0.36
x2 = 0.6765	0.0924	0.114	0.136	0.158	0.182	0.206	0.232	0.259	0.294
x2 = 0.8247	0.0667	0.0831	0.101	0.119	0.138	0.158	0.182	0.21	0.24

COC(=O)C1=C(C)NC(C)=C(C(=O)OCC(C)C)C1c1ccccc1[N+](=O)[O-] (configuration not stated) + CCOC(C)=O + CCO
solubility (g/100 g solution)
Settings	278.15 K	283.15 K	288.15 K	293.15 K	298.15 K	303.15 K	308.15 K	313.15 K	318.15 K
x2 = 0.05491	3.09	3.87	4.65	5.7	6.64	8.03	9.37	11.1	12.9
x2 = 0.1156	3.98	4.79	5.78	6.75	8.13	9.47	11	12.8	14.5
x2 = 0.1831	4.91	5.89	6.97	8.15	9.36	10.8	12.3	14	15.7
x2 = 0.2585	5.53	6.46	7.49	8.75	10	11.5	13	14.7	16.6
x2 = 0.3434	5.99	6.94	8.09	9.33	10.6	12	13.7	15.3	17.2
x2 = 0.4396	6.34	7.36	8.52	9.66	11.2	12.6	14.2	15.9	17.7
x2 = 0.5496	6.6	7.63	8.77	10.1	11.4	12.8	14.4	16.1	18
x2 = 0.6765	6.76	7.78	8.91	10.2	11.5	13.1	14.7	16.3	18.2
x2 = 0.8247	6.8	7.86	9.01	10.2	11.6	13.1	14.6	16.3	18.2

CC(=O)Nc1ccc(OC(=O)c2ccccc2OC(C)=O)cc1 + CN1CCCC1=O + O
solubility (g/100 g solution)
Settings	278.15 K	283.15 K	288.15 K	293.15 K	298.15 K	303.15 K	308.15 K	313.15 K	318.15 K
x2 = 0.0198	0.0101	0.0143	0.02	0.0278	0.0388	0.0522	0.0688	0.0923	0.122
x2 = 0.04347	0.0672	0.0901	0.121	0.159	0.209	0.268	0.349	0.446	0.569
x2 = 0.07228	0.275	0.355	0.448	0.581	0.725	0.903	1.13	1.39	1.7
x2 = 0.1081	0.8	0.998	1.25	1.51	1.85	2.22	2.69	3.19	3.81
x2 = 0.1538	1.62	1.95	2.37	2.85	3.4	4.01	4.67	5.48	6.35
x2 = 0.2143	2.87	3.37	3.94	4.63	5.38	6.15	7.12	8.13	9.18
x2 = 0.2979	4.29	4.95	5.76	6.59	7.51	8.56	9.7	10.8	12.1
x2 = 0.421	5.72	6.53	7.43	8.43	9.49	10.7	11.8	13.2	14.5
x2 = 0.6207	6.55	7.48	8.44	9.55	10.7	11.9	13.3	14.7	16.1

O=c1[nH]cc(F)c(=O)[nH]1 + CN(C)C=O + C1CCOC1
solubility (g/100 g solution)
Settings	283.15 K	288.15 K	293.15 K	298.15 K	303.15 K	308.15 K	313.15 K	318.15 K	323.15 K
x2 = 0.1978	0.137	0.174	0.209	0.264	0.33	0.423	0.551	0.66	0.816
x2 = 0.3967	0.188	0.24	0.293	0.37	0.468	0.581	0.735	0.883	1.07
x2 = 0.5967	0.283	0.352	0.434	0.533	0.653	0.814	1.01	1.24	1.51
x2 = 0.7978	0.461	0.564	0.685	0.829	0.996	1.23	1.51	1.84	2.23

CC(=O)Nc1ccc(OC(=O)c2ccccc2OC(C)=O)cc1 + CN(C)C=O + O
solubility (g/100 g solution)
Settings	278.15 K	283.15 K	288.15 K	293.15 K	298.15 K	303.15 K	308.15 K	313.15 K	318.15 K
x2 = 0.02666	0.00846	0.0119	0.016	0.0222	0.0297	0.0399	0.0526	0.0698	0.0891
x2 = 0.05806	0.0473	0.0628	0.084	0.109	0.141	0.18	0.232	0.291	0.365
x2 = 0.09556	0.235	0.295	0.376	0.471	0.571	0.703	0.866	1.05	1.27
x2 = 0.1412	0.633	0.777	0.947	1.16	1.39	1.68	1.97	2.35	2.77
x2 = 0.1978	1.3	1.55	1.82	2.17	2.52	2.94	3.41	3.9	4.5
x2 = 0.27	2.25	2.63	3.06	3.49	4.01	4.6	5.22	5.91	6.7
x2 = 0.3652	3.47	3.96	4.51	5.08	5.72	6.42	7.14	7.91	8.74
x2 = 0.4965	4.8	5.32	5.97	6.58	7.24	7.99	8.71	9.48	10.3
x2 = 0.6893	6.08	6.62	7.2	7.86	8.46	9.14	9.88	10.5	11.3
